# Laboratory results published in patent publication US20090238852A1, “METHODS FOR CONTROLLING INTRACELLULAR CALCIUM LEVELS ASSOCIATED WITH AN ISCHEMIC EVENT” (University of Utah Research Foundation, priority 2008, published 2009).
# Assays:
# [1] = system: activated clotting time (ACT); experiment: Porcine ischemia/reperfusion model: activated clotting time (ACT); type: in vivo, pig; details: for ACT group difference versus control: 90 and 180 min after
# Text: Arterial access was achieved via bilateral femoral artery cut-downs for the insertion of 8F sheaths. Central venous and carotid access was achieved via a neck incision to expose the external jugular vein and common carotid artery. Animals were then anticoagulated with 50 U/kg of unfractionated heparin to maintain an activated clotting time (ACT) between 250-350 seconds, prior to ischemia. A 7-8 Fr pigtail catheter was placed in the left ventricular cavity to measure pressure and for injection of […] microspheres. Angiography was performed to define coronary anatomy and measure the diameter of the left anterior descending coronary artery (LAD) at the point of intended balloon occlusion. A coronary sinus catheter was placed via the external jugular vein under fluoroscopic guidance for coronary venous sampling. Baseline cardiodynamic and hemodynamic data were measured using a solid state transducer-tipped catheter in the left ventricle (Millar Instruments, Houston, Tex.) to measure left ventricular pressure, and a fluid-filled transducer connected to the side port of the femoral artery sheath to measure peripheral arterial pressure. Approximately 3-4 million neutron-activated microspheres (BioPhysics Assay Laboratory, Inc, Worcester, Ma) (15 μm) were delivered through a pig-tail catheter into the left ventricle over a 30 second period, to quantify regional myocardial blood flow (RMBF). Simultaneously with injection, a reference sample was withdrawn at a rate of 7 cc/min from the femoral artery sheath, for 90 seconds during and after injection of microspheres. A contrast ventriculogram (60° right anterior oblique) was obtained to assess global and regional myocardial function at baseline. […] Balloon occlusion time was 75 minutes with coronary occlusion confirmed by contrast angiography, ST segment changes on electrocardiography, and quantitatively confirmed by microspheres delivered at the end of ischemia, as described above. […] At the end of 180 minutes of reperfusion, animals were euthanized with an IV injection of pentobarbital sodium (100 mg/kg) and the heart was excised to quantify the area at risk, infarct size, regional myocardial blood flow, and myeloperoxidase activity. Hemodynamic data (left ventricular and arterial blood pressure) and derived variables were recorded continuously using 10× and Datanalyst software (EMKA Technologies, Falls Church, Va.).
# Blood anticoagulation was measured by following the ACT, determined using the Hemochron whole blood coagulating system (Hemochron, Edison, N.J.) and measured 10 minutes after delivery of 50 U/kg of unfractionated heparin after the insertion of arterial sheaths. […]
# [2] = system: rabbit ventricular myocytes; experiment: Intracellular sodium [Na^+]i in ventricular myocytes during PMI, Sodium Green flow cytometry; type: cell-based; details: PMI + ODSH 100 μg/mL; n = 7; PMI alone 11.16 ± 0.90, Hepes 6.04 ± 0.25
# Method: In these studies, intracellular calcium concentration [Ca^++]i was measured by flow cytometry. Measurement of isolated mouse and rabbit ventricular myocyte [Ca^2+]i and [Na^+]i by flow cytometry has been described (Zhang et al., J. Cardiovasc. Pharmacol. 51: 443-449 (2008); Li et al., J. Mol. Cell. Cardiol. 33: 2145-2155 (2001)). [Ca^++]i was measured with the Ca^++ sensitive fluorescent probe, Fluo 3-AM (Molecular Probes, Eugene, Oreg.), using a FACScan (Becton-Dickinson, MA). The cells were exposed to 4 μmol/L Fluo-3 AM for 30 min at 37° C. The cells were then separated into aliquots. After 40 min of wash, the cells were exposed to paced metabolic ischemia (MI) for 45 min at 37° C. Metabolic ischemia was accomplished by incubating cells in a glucose-free MKRBB solution (pH 7.40) containing 2 mmol/L sodium cyanide (NaCN) to impair mitochondrial and glycolytic generation of ATP. […] Approximately 2×10^3 myocytes were analyzed to calculate average emission fluorescence intensity in each sample. […] Only those cells with low fluorescence intensity at 670 nm (PI-negative cells or viable cells) were included in the comparative analysis of [Ca^++]i. The sample [Ca^2+]i values were calculated by Mn^2+ quenching (Sugishita et al, 2001) and [Na^+]i values by comparison with a standard curve of varied [Na^+]i versus Na Green fluorescence. […] Results were expressed as means±SEM. […]
substance,measurement,setting,value
"2-O, 3-O desulfated heparin [ODSH]",elevation above control in ACT,[1]; 15 mg/kg dose group,approximately 200 seconds
same,ACT group difference versus control,"[1]; ODS 5 mg/kg, end ischemia",no significant differences in ACT
same,ACT group difference versus control,"[1]; ODS 15 mg/kg, end ischemia",no significant differences in ACT
same,ACT compared to the other groups,"[1]; ODS 45 mg/kg, end ischemia, 90 and 180 min after end of ischemia, on 50 U/kg UFH background",significantly higher
same,[Na^+]i,[2],7.85 ± 0.45 mM
